Results taken from ChEMBL document CHEMBL5528008, “Design and synthesis of the first PARP-1 and proteasome dual inhibitors to treat breast cancer” (Eur J Med Chem, 2024).

Assays:
[1] = target: Poly [ADP-ribose] polymerase 1 (Homo sapiens, UniProt P09874); assay: Inhibition of PARP-1 (unknown origin) using Femto-ECL as substrate preincubated for 2.7 hrs followed by substrate addition by chemiluminescence assay
[2] = target: 20S proteasome; assay: Inhibition of 20S proteasome (unknown origin) using […] as substrate; assay type: protein-complex assay, Homo sapiens
[3] = system: BT-549; assay: Cytotoxicity against human BT-549 cells assessed as inhibition of cell growth incubated for 72 hrs by MTT assay; assay type: functional, cell-based; conditions: BT-549, 72 h
[4] = system: MCF7; assay: Cytotoxicity against human MCF7 cells assessed as inhibition of cell growth incubated for 72 hrs by MTT assay; assay type: functional, cell-based; conditions: MCF7, 72 h
[5] = system: MDA-MB-231; assay: Cytotoxicity against human MDA-MB-231 cells assessed as inhibition of cell growth incubated for 72 hrs by MTT assay; assay type: functional, cell-based; conditions: MDA-MB-231, 72 h

Chain of Poly [ADP-ribose] polymerase 1 (P09874 whole entry): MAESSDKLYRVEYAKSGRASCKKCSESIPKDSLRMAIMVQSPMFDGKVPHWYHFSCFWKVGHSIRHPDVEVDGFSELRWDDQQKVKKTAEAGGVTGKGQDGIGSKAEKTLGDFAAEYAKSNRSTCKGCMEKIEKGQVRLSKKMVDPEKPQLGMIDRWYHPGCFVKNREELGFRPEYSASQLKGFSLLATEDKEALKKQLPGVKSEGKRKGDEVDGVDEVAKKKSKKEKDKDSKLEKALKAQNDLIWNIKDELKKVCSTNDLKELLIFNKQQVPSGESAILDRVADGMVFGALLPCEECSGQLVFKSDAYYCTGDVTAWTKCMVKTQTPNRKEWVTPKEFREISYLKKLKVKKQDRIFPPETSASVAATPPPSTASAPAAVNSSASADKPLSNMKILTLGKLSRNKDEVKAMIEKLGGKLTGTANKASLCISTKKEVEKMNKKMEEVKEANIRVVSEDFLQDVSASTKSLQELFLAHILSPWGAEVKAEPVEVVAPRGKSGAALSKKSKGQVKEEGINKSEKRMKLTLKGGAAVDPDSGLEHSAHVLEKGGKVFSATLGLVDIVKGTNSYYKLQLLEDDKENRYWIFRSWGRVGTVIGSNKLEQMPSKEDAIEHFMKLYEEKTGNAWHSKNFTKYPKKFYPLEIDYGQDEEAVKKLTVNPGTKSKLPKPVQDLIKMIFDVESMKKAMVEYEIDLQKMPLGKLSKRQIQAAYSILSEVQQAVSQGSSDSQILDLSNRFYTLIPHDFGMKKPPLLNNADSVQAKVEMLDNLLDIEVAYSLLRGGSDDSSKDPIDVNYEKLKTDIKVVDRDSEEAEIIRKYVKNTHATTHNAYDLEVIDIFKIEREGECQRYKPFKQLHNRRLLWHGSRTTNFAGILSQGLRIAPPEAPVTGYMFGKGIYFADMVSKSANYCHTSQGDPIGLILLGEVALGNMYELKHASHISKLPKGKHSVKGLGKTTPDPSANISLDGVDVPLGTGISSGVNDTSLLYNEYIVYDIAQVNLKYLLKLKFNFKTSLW

Row | Structure (SMILES) | IC50 [1] | IC50 [2] | IC50 [3] | IC50 [4] | IC50 [5]
1 | CC(C)C[C@H](NC(=O)CNC(=O)c1cc(Cc2n[nH]c(=O)c3ccccc23)ccc1F)B1O[C@@H]2C[C@@H]3C[C@@H](C3(C)C)[C@]2(C)O1 | 2.1 nM | 157 nM | 97.7 nM | 355 nM | 249 nM
2 | CC(C)C[C@H](NC(=O)[C@@H](NC(=O)c1cc(Cc2n[nH]c(=O)c3ccccc23)ccc1F)C(C)C)B1O[C@@H]2C[C@@H]3C[C@@H](C3(C)C)[C@]2(C)O1 | 151 nM | 98.3 nM | 13.3 nM | 174 nM | 20.8 nM
3 | CC(C)C[C@H](NC(=O)[C@@H](NC(=O)c1cc(Cc2n[nH]c(=O)c3ccccc23)ccc1F)[C@H](C)O)B1O[C@@H]2C[C@@H]3C[C@@H](C3(C)C)[C@]2(C)O1 | 273 nM | 13.8 nM | 179 nM | 493 nM | 178 nM
4 | CC(C)C[C@H](NC(=O)CNC(=O)c1cc(Cc2ccc(=O)[nH]n2)ccc1F)B1O[C@@H]2C[C@@H]3C[C@@H](C3(C)C)[C@]2(C)O1 | > 1000 nM | 2150 nM |  |  | 
5 | CC(C)C[C@H](NC(=O)[C@H](Cc1ccccc1)NC(=O)c1cc(Cc2n[nH]c(=O)c3ccccc23)ccc1F)C(=O)[C@@]1(C)CO1 |  | 1420 nM |  |  | 

Second part, led by results:

Row | IC50 [1] | IC50 [2] | Structure (SMILES) | IC50 [3] | IC50 [4] | IC50 [5]
6 | 171 nM | 65.6 nM | CC(C)C[C@H](NC(=O)[C@@H](NC(=O)c1cc(Cc2n[nH]c(=O)c3ccccc23)ccc1F)C(C)(C)C)B1O[C@@H]2C[C@@H]3C[C@@H](C3(C)C)[C@]2(C)O1 | 12.3 nM | 130 nM | 28.1 nM
7 | 116 nM | 47.6 nM | CC(C)C[C@H](NC(=O)[C@H](Cc1ccc(O)cc1)NC(=O)c1cc(Cc2n[nH]c(=O)c3ccccc23)ccc1F)B1O[C@@H]2C[C@@H]3C[C@@H](C3(C)C)[C@]2(C)O1 | 348 nM | 980 nM | 328 nM
8 | > 1000 nM |  | CC(C)C[C@H](NC(=O)[C@H](Cc1ccccc1)NC(=O)c1cc(COc2ccccc2C(N)=O)ccc1F)B1O[C@@H]2C[C@@H]3C[C@@H](C3(C)C)[C@]2(C)O1 |  |  | 
9 | 291 nM | 87.8 nM | CC(C)C[C@H](NC(=O)[C@H](Cc1ccccc1)NC(=O)c1cc(Cc2n[nH]c(=O)c3ccccc23)ccc1F)B(O)O |  |  | 
10 | > 1000 nM |  | Cc1c(Cc2ccc(F)c(C(=O)N[C@@H](Cc3ccccc3)C(=O)N[C@@H](CC(C)C)B3O[C@@H]4C[C@@H]5C[C@@H](C5(C)C)[C@]4(C)O3)c2)n[nH]c(=O)c1C |  |  | 
11 |  | > 10000 nM | CC(C)C[C@H](NC(=O)CNC(=O)c1cc(Cc2n[nH]c(=O)c3ccccc23)ccc1F)C(=O)[C@@]1(C)CO1 |  |  | 
12 | 98 nM | 56.1 nM | CC(C)C[C@H](NC(=O)[C@H](Cc1c[nH]c2ccccc12)NC(=O)c1cc(Cc2n[nH]c(=O)c3ccccc23)ccc1F)B(O)O |  |  | 
